The values below come from patent publication US5587392A, “Azolyl methyl phenyl derivatives having aromatase inhibitory activity” (Mochida Pharmaceutical Co., Ltd., priority 1994, dated 1996).

The structures appear in SMILES notation. Where “and” joins values, the source holds several entries; their conditions need not be identical. Equal entries are not always repeated.

What is called IC50 is the concentration at which inhibition is half-maximal.

For data set [1], the system named is cleavage enzymes of cholesterol side chains. The settings on record: related art; cited from earlier work.
Data set [2] relates to plasma 17α-hydroxyprogesterone. Description: Elevating effect on plasma 17α-hydroxyprogesterone. The format is in vivo, male SD rats.
The subject of data set [3] is biosynthesis of aldosterone. The settings on record: related art; cited from earlier work.
The test system of another data set is plasma aldosterone. The data set can be described thus: Lowering effect on plasma aldosterone. The format is in vivo, male SD rats.
For the next data set, the system named is corticosterone. The data set can be described thus: Effect on plasma levels of corticosterone. The format is in vivo, male SD rats. Conditions: even at the highest doses (10 mg/kg; CGS 16949A 1 mg/kg).
The next data set relates to plasma estradiol. The data set can be described thus: Decreasing activity on blood estrogen (plasma estradiol, PMSG-treated rats). The data set is classed as in vivo, female SD rats. The settings on record: Rattus norvegicus, po, 4 hours after dosing, read-out: Ratio in plasma estradiol decrease. How it is done: More specifically, pregnant mare serum gonadotropin (PMSG) was subcutaneously administered to female SD rats aged 3 weeks, at a dose of 200 IU/rat. […] Four hours after the dosing of the test compound, blood was sampled, and plasma estradiol was messuered by radioimmunoassay(RIA). The decreasing ratio (%) in plasma estradiol levels was calculated by comparing with control groups.

Data set [4] concerns steroid hormone level in blood. The data set can be described thus: Effects on the synthesis of various steroid hormones, compared with the dose lowering blood estrogen. Conditions: 10 mg/kg. The format is in vivo, rats.
In the next data set the test system is testosterone. Description: Effect on plasma levels of testosterone. The data set is classed as in vivo, male SD rats. The settings on record: even at the highest doses (10 mg/kg; CGS 16949A 1 mg/kg).
The next data set has as its target T1, aromatase from rat ovary (Rattus norvegicus, UniProt P22443).
T1 construct: Using as an enzyme sample the ovarian microsome fraction from a female rat; from tissue; host or cells: rat ovary, microsome fraction (female rat)
T1 sequence (P22443 1-508): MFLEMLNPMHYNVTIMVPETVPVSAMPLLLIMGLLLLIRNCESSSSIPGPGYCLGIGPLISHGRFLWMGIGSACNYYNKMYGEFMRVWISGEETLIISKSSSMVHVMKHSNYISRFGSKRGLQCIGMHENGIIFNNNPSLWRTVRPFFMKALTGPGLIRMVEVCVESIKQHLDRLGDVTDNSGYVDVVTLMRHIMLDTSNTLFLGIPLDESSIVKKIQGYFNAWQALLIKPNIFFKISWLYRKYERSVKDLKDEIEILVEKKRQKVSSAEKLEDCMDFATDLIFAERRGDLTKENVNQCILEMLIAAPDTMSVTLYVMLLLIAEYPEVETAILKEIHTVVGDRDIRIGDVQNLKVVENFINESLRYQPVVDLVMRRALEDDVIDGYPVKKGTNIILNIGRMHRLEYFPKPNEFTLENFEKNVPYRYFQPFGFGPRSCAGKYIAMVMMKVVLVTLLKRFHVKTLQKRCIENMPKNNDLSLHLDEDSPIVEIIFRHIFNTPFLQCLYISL
The data set can be described thus: Inhibitory activity on aromatase from rat ovary. The format is biochemical. The settings on record: rat ovarian microsomes, 30 nM [1β-3H] androstenedione, pH 7.4, 37° C., 15 minutes; read-out: IC50 value.

The subject of a further data set is progesterone. Description: Effect on plasma levels of progesterone. The format is in vivo, male SD rats. Conditions: even at the highest doses (10 mg/kg; CGS 16949A 1 mg/kg).

Consider `CCC1(c2ccc(N)cc2)CCC(=O)NC1=O` (centres unmarked) [AG, Aminoglutethimide], for which, in data set [1], the “decrease of glucocorticoids and mineral corticoids” value is “causes therefore the decrease of glucocorticoids and mineral corticoids”; the “potency to inhibit cleavage enzymes of cholesterol side chains” value is given as “higher potency to inhibit cleavage enzymes of cholesterol side chains”.

In the case of `N#Cc1ccc(C2CCCc3cncn32)cc1` (centres unmarked) [CGS 16949A, 5-(p-cyanophenyl)-5,6,7,8-tetrahydroimidazo[1,5-a]pyridine], in data set [2] (Rattus norvegicus, po, read-out: dose elevating plasma 17α-hydroxyprogesterone level), the minimal effective dose is at least 0.1 mg/kg. Moreover, in data set [2] (rat, in vivo), the “Elevation in plasma 17α-hydroxyprogesterone” value is 169% and 313%; the “change of plasma levels of 17α-hydroxyprogesterone” value was “did change”. Further, the “inhibition of the biosynthesis of aldosterone” value in data set [3] is “inhibits the biosynthesis of aldosterone”. Moreover, the minimal effective dose with plasma aldosterone (Rattus norvegicus, po, read-out: dose decreasing plasma aldosterone level) was at least 0.1 mg/kg. In the data set on plasma aldosterone (rat, in vivo), the “Decrease in plasma aldosterone” value is 37% and 55%; the “change of plasma levels of aldosterone” value is given as “did change”.

`Cn1nnc2ccc(Oc3ccc(C#N)cc3Cn3cncn3)cc21` [Example 52, 4-[6-(1-methyl-1H-benzotriazoyloxy)]-3-(1H-1,2,4-triazol-1-ylmethyl)benzonitrile]: in the data set on corticosterone, the “effect on plasma levels of corticosterone” value is on record as “neither the compound of Example 41 nor the compound of Example 52 in accordance with the present invention had any effect”. For the same compound, in the data set with plasma estradiol (0.001 mg/kg orally), the inhibition in vivo at 0.001 mg/kg was 22%. For the same compound, in the data set on plasma estradiol (0.01 mg/kg orally), the inhibition in vivo at 0.01 mg/kg amounted to 77%. The inhibition in vivo at 0.1 mg/kg in the data set on plasma estradiol (0.1 mg/kg orally) is 91%. Also, the “effect on any steroid hormone level in blood” value in [4] is recorded as “Neither the compound of Example 41 nor the compound of Example 52 in accordance with the present invention had any effect”. For the same compound, the “effect on plasma levels of testosterone” value with testosterone is reported as “neither the compound of Example 41 nor the compound of Example 52 in accordance with the present invention had any effect”. In addition, at aromatase from rat ovary, the concentration for half-maximal inhibition (IC50) turned out to be 0.4 nM. Moreover, the “effect on plasma levels of progesterone” value in the data set on progesterone was “neither the compound of Example 41 nor the compound of Example 52 in accordance with the present invention had any effect”.
